Source: PMC4157036, “Does Long-Term Administration of a Beta-Blocker (Timolol) Induce Fibril-Based Cataract Formation In-vivo?” (Iranian Journal of Pharmaceutical Research : IJPR, 2014)

Target: T1, bovine α-crystallin (Bos taurus, UniProt P02470+P02510)
T1 construct: gene CRYAA; native hetero-oligomer purified from bovine lenses (cows under two years), mixture of alphaA and alphaB subunits at about 3:1; no tag
T1 sequence (P02470 1-173): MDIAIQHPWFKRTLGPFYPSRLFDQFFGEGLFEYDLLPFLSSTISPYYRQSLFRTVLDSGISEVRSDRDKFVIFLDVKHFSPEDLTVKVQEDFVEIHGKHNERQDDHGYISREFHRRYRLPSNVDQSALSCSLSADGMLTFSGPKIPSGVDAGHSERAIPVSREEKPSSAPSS
T1 sequence (P02510 1-175): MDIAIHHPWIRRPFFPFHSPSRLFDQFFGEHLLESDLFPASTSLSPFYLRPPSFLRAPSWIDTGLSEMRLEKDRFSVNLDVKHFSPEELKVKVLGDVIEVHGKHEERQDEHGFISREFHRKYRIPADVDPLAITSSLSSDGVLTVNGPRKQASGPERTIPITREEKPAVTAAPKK
Assay: turbidity at […] nm of GdnHCl-induced aggregation at […] °C
Details: 5 µM timolol, protein 0.6 mg/mL, 0.1 M phosphate pH 7.4, 60 °C, enhancer of aggregation, direct binding not measured

aggregation extent (fold): ~ 3 fold
Compound: CC(C)(C)NC[C@H](O)COc1nsnc1N1CCOCC1 [timolol]
